Data taken from US8541363B2, “Pyruvamide compounds as inhibitors of dust mite group 1 peptidase allergen and their use” (St George's Hosptial Medical School, priority 2010, dated 2013).

target: Der p 1 (Dermatophagoides pteronyssinus (European house dust mite), UniProt P08176); experiment: Der p 1 enzyme activity assay (FRET fluorogenic substrate); format: biochemical; conditions: Der p 1 IC50
Method: The fluorogenic substrate used for measuring Der p 1 proteolytic activity was 2-aminobenzoylvalylalanylnorleucylseryl-(3-nitro)tyrosinyl aspartamide.
Test compounds were dissolved in dry DMSO and maintained at 4° C. as stock solutions until being diluted for use in screening assays. Final concentration of DMSO in all enzymatic assays was 0.5% v/v.
Reaction mixtures were assembled in a 96-well plate format (Perkin Elmer Optiplate 96F, Perkin Elmer LAS, Seer Green, Buckinghamshire, UK) using a Perkin Elmer MultiPROBE II Plus HTS EX robot with Gripper attachment. […] Dithiothreitol (DTT, 10 μL/well, 1 mM final concentration) was then added together with 10 μL of Der p 1 dissolved at 2.5 μg/mL in reaction buffer supplemented with 1 mM DTT. […] The plate was immediately transferred to a fluorescence plate reader (Perkin Elmer Fusion Alpha-FP or Perkin Elmer Envision) equipped with a temperature-controlled carrier set at 30° C. and the reaction followed by excitation/emission at 330/420 nm.
Inhibitory activity was analysed from progress curves of reactions in the presence of a range of inhibitor concentrations.
Initial velocity in each well was converted to fractional activity by Equation 1: Fractional activity=(Initial rate at inhibitor concentration[X]/Initial rate at inhibitor concentration zero)*100 Equation 1:
Then, IC50 was determined by fitting the data of fractional activity and inhibitor concentration to a 4-parameter logistic curve, using Equation 2: V=Vmin+[Vmax−Vmin]/[1+(X/IC50)Hillslope] […] Biological Data—Der p 1 Enzyme Assay

Der p 1, sequence (P08176 99-320): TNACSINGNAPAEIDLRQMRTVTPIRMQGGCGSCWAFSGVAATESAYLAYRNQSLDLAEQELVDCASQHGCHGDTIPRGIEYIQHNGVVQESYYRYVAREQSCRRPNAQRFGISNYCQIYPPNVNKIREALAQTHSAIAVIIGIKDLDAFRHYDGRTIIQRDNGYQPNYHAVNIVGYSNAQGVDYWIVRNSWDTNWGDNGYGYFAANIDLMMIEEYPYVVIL

Structure (SMILES)	IC50
CC(C)[C@H](NC(=O)[C@H](C)NC(=O)[C@H](Cc1ccccc1)NC(=O)c1ccccc1)C(=O)C(=O)NCC(=O)N1CCCCC1 [PVA-067]	< 20 nM
CC(C)[C@H](NC(=O)[C@H](C)NC(=O)[C@H](Cc1ccccc1)NC(=O)c1ccccc1)C(=O)C(=O)NCC(=O)N1CCOCC1 [PVA-068]	< 20 nM
CC(C)[C@@H](NC(=O)[C@H](C)NC(=O)[C@@H](NC(=O)c1ccccc1)C(C)(C)C)C(=O)C(=O)NC1CCCCC1 [PVA-085]	< 200 nM
CC(C)[C@@H](NC(=O)[C@H](C)NC(=O)[C@@H](NC(=O)c1ccncc1)C(C)(C)C)C(=O)C(=O)NC1CCCCC1 [PVA-086]	< 200 nM
CC(C)[C@H](NC(=O)[C@H](C)NC(=O)[C@H](Cc1ccccc1)NC(=O)c1ccccc1)C(=O)C(=O)NCC(=O)N1CCN(C(C)C)CC1 [PVA-092]	< 20 nM
CC(C)[C@H](NC(=O)[C@H](C)NC(=O)[C@H](Cc1ccccc1)NC(=O)c1ccccc1)C(=O)C(=O)N[C@@H](C)C(=O)N1CCN(C)CC1 [PVA-094]	< 20 nM
CC(C)[C@H](NC(=O)[C@H](C)NC(=O)[C@@H](NC(=O)c1ccccc1)C(C)(C)C)C(=O)C(=O)NCC(=O)N1CCc2ccccc2C1 [PVA-111]	< 20 nM

same assay, conditions: threshold stated in text; read-out: Der p 1 IC50

Structure (SMILES)	IC50
CC(=O)Nc1cc(C(=O)N[C@H](C(=O)N[C@@H](C)C(=O)N[C@H](C(=O)C(=O)NC2CCCCC2)C(C)C)C(C)(C)C)ccn1 [PVA-062]	< 200 nM
CC(=O)Nc1ccc(C(=O)N[C@H](C(=O)N[C@@H](C)C(=O)N[C@H](C(=O)C(=O)NCc2ccccc2)C(C)C)C(C)(C)C)cn1 [PVA-063]	< 200 nM
CC(=O)Nc1cc(C(=O)N[C@H](C(=O)N[C@@H](C)C(=O)N[C@H](C(=O)C(=O)NCc2ccccc2)C(C)C)C(C)(C)C)ccn1 [PVA-064]	< 200 nM
CC(C)[C@H](NC(=O)[C@H](C)NC(=O)[C@H](Cc1ccccc1)NC(=O)c1cccc(OCCN2CCCC2)c1)C(=O)C(=O)NC1CCCCC1 [PVA-065]	< 200 nM
CC(C)[C@H](NC(=O)[C@H](C)NC(=O)[C@@H](NC(=O)c1ccccc1)C12C[C@H]3C[C@@H](C1)C[C@@H](C2)C3)C(=O)C(=O)NCc1ccccc1 [PVA-066]	< 20 nM
CC(C)[C@H](NC(=O)[C@H](C)NC(=O)[C@H](Cc1ccccc1)NC(=O)c1ccnc(N2CCOCC2)c1)C(=O)C(=O)NC1CCCCC1 [PVA-069]	< 2000 nM
CC(C)[C@H](NC(=O)[C@H](C)NC(=O)[C@H](Cc1ccccc1)NC(=O)c1ccc(N2CCOCC2)nc1)C(=O)C(=O)NCc1ccccc1 [PVA-070]	< 2000 nM
CC(C)[C@H](NC(=O)[C@H](C)NC(=O)[C@@H](NC(=O)c1ccnc2ccccc12)C(C)(C)C)C(=O)C(=O)NC1CCCCC1 [PVA-071]	< 20 nM
CC(C)[C@H](NC(=O)[C@H](C)NC(=O)[C@@H](NC(=O)c1ccnc2ccccc12)C(C)(C)C)C(=O)C(=O)NCc1ccccc1 [PVA-072]	< 20 nM
CC(C)[C@H](NC(=O)[C@H](C)NC(=O)[C@@H](NC(=O)c1cncc2ccccc12)C(C)(C)C)C(=O)C(=O)NC1CCCCC1 [PVA-073]	< 20 nM
CC(C)[C@H](NC(=O)[C@H](C)NC(=O)[C@@H](NC(=O)c1cncc2ccccc12)C(C)(C)C)C(=O)C(=O)NCc1ccccc1 [PVA-074]	< 20 nM
CC(C)[C@H](NC(=O)[C@H](C)NC(=O)[C@@H](NC(=O)c1cccc(OCc2nccn2C)c1)C(C)(C)C)C(=O)C(=O)NC1CCCCC1 [PVA-075]	< 200 nM
CC(C)[C@H](NC(=O)[C@H](C)NC(=O)[C@@H](NC(=O)c1ccc(OCCN2CCCC2)cc1)C(C)(C)C)C(=O)C(=O)NC1CCCCC1 [PVA-076]	< 200 nM
CC(C)[C@H](NC(=O)[C@H](C)NC(=O)[C@@H](NC(=O)c1ccc(OCc2nccn2C)cc1)C(C)(C)C)C(=O)C(=O)NC1CCCCC1 [PVA-077]	< 200 nM
CC(C)[C@H](NC(=O)[C@H](C)NC(=O)[C@@H](NC(=O)c1ccccc1)C(C)(C)C)C(=O)C(=O)NCC(=O)N1CCCCC1 [PVA-078]	< 20 nM
CC(C)[C@H](NC(=O)[C@H](C)NC(=O)[C@@H](NC(=O)c1ccccc1)C(C)(C)C)C(=O)C(=O)NCC(=O)N1CCOCC1 [PVA-079]	< 20 nM
COC(=O)c1cccc(CNC(=O)C(=O)[C@@H](NC(=O)[C@H](C)NC(=O)[C@H](Cc2ccccc2)NC(=O)c2ccccc2)C(C)C)c1 [PVA-080]	< 20 nM
CC(C)[C@H](NC(=O)[C@H](C)NC(=O)[C@H](Cc1ccccc1)NC(=O)c1ccccc1)C(=O)C(=O)NCc1cccc(C(=O)O)c1 [PVA-081]	< 200 nM
CC(C)[C@H](NC(=O)[C@H](C)NC(=O)[C@@H](NC(=O)c1ccncn1)C(C)(C)C)C(=O)C(=O)NC1CCCCC1 [PVA-082]	< 200 nM
CC(C)[C@H](NC(=O)[C@H](C)NC(=O)[C@H](Cc1ccccc1)NC(=O)c1ccccc1)C(=O)C(=O)NC1CCN(C)CC1 [PVA-083]	< 200 nM
CC(C)[C@H](NC(=O)[C@H](C)NC(=O)[C@@H](NC(=O)c1ccc(=O)[nH]c1)C(C)(C)C)C(=O)C(=O)NC1CCCCC1 [PVA-084]	< 200 nM
CCC[C@H](NC(=O)[C@H](Cc1ccccc1)NC(=O)c1ccccc1)C(=O)N[C@H](C(=O)C(=O)NC1CCCCC1)C(C)C [PVA-088]	< 200 nM
CC(C)[C@H](NC(=O)[C@H](C)NC(=O)[C@@H](NC(=O)C1CCN(C)CC1)C(C)(C)C)C(=O)C(=O)NC1CCCCC1 [PVA-089]	< 200 nM
CC(C)[C@H](NC(=O)[C@H](C)NC(=O)C(C)(C)NC(=O)c1ccccc1)C(=O)C(=O)NC1CCCCC1 [PVA-090]	< 2000 nM

Structure (SMILES)	IC50
CC(C)[C@H](NC(=O)[C@H](C)NC(=O)C1(NC(=O)c2ccccc2)CCCCC1)C(=O)C(=O)NC1CCCCC1 [PVA-091]	< 200 nM
CC(C)[C@H](NC(=O)[C@H](C)NC(=O)[C@H](Cc1ccccc1)NC(=O)c1ccccc1)C(=O)C(=O)NCC(=O)N1CCC(N(C)C)CC1 [PVA-093]	< 20 nM
CC(C)[C@H](NC(=O)[C@H](C)NC(=O)[C@H](Cc1ccccc1)NC(=O)c1cccc2ccccc12)C(=O)C(=O)NCC(=O)N1CCN(C)CC1 [PVA-095]	< 200 nM
CC(C)[C@H](NC(=O)[C@H](C)NC(=O)[C@H](Cc1ccccc1)NC(=O)c1ccccc1)C(=O)C(=O)NCCN1CCN(C)CC1 [PVA-098]	< 200 nM
CC(C)[C@H](NC(=O)[C@H](C)NC(=O)[C@H](Cc1ccccc1)NC(=O)c1ccncc1)C(=O)C(=O)NCc1ccccc1 [PVA-099]	< 20 nM
CC(C)[C@H](NC(=O)[C@H](C)NC(=O)[C@@H]1Cc2ccccc2CN1C(=O)c1ccccc1)C(=O)C(=O)NC1CCCCC1 [PVA-100]	< 200 nM
CC(C)[C@H](NC(=O)[C@H](C)NC(=O)C1CCCN1C(=O)c1ccccc1)C(=O)C(=O)NC1CCCCC1 (stereo partly drawn) [PVA-101]	< 200 nM
C[C@H](NC(=O)[C@H](Cc1ccccc1)NC(=O)c1ccccc1)C(=O)NCC(=O)C(=O)NCc1ccccc1 [PVA-102]	< 200 nM
CC(C)[C@H](NC(=O)[C@H](C)NC(=O)[C@H](Cc1ccccc1)NC(=O)c1ccccc1)C(=O)C(=O)NC1Cc2ccccc2C1 [PVA-103]	< 200 nM
CC(C)[C@H](NC(=O)[C@H](C)NC(=O)[C@H](Cc1ccccc1)N1Cc2ccccc2C1=O)C(=O)C(=O)NC1CCCCC1 [PVA-104]	< 20 nM
CC(C)[C@H](NC(=O)[C@H](C)NC(=O)[C@@H](NC(=O)c1ccccc1)C(C)(C)C)C(=O)C(=O)NCC(=O)N1CCC(N(C)C)C1 (stereo partly drawn) [PVA-105]	< 20 nM
CC(C)[C@H](NC(=O)[C@H](C)NC(=O)[C@@H](NC(=O)c1ccccc1Oc1ccccc1)C(C)(C)C)C(=O)C(=O)NCc1ccccc1 [PVA-106]	< 200 nM
Cc1cc(C(=O)N[C@H](C(=O)N[C@@H](C)C(=O)N[C@H](C(=O)C(=O)NCc2ccccc2)C(C)C)C(C)(C)C)[nH]n1 [PVA-107]	< 200 nM
CC(C)[C@H](NC(=O)[C@H](C)NC(=O)[C@@H](NC(=O)c1ccccc1S(C)(=O)=O)C(C)(C)C)C(=O)C(=O)NCc1ccccc1 [PVA-108]	< 20 nM
CC(C)[C@H](NC(=O)[C@H](C)NC(=O)[C@@H](NC(=O)c1ccccc1)C(C)(C)C)C(=O)C(=O)N[C@@H]1CCc2ccccc21 [PVA-109]	< 200 nM
CC(C)[C@H](NC(=O)[C@H](C)NC(=O)[C@@H](NC(=O)c1ccccc1)C(C)(C)C)C(=O)C(=O)N[C@H]1CCc2ccccc21 [PVA-110]	< 200 nM
CC(C)[C@H](NC(=O)[C@H](C)NC(=O)[C@@H](NC(=O)c1ccccc1)C(C)(C)C)C(=O)C(=O)NCC(=O)N1CCc2ccccc21 [PVA-112]	< 20 nM
CC(C)[C@H](NC(=O)[C@H](C)NC(=O)[C@H](Cc1ccccc1)NC(=O)c1n[nH]c2ccccc12)C(=O)C(=O)NCc1ccccc1 [PVA-113]	< 200 nM
CC(C)[C@H](NC(=O)[C@H](C)NC(=O)[C@@H](NC(=O)c1cc[nH]c(=O)c1)C(C)(C)C)C(=O)C(=O)NCc1ccccc1 [PVA-114]	< 200 nM
Cc1n[nH]c(C)c1C(=O)N[C@H](C(=O)N[C@@H](C)C(=O)N[C@H](C(=O)C(=O)NCc1ccccc1)C(C)C)C(C)(C)C [PVA-115]	< 200 nM
CC(C)[C@H](NC(=O)[C@H](C)NC(=O)[C@@H](NC(=O)c1ccccc1)C(C)(C)C)C(=O)C(=O)NC1CC1 [PVA-116]	< 20 nM
CNC(=O)C(=O)[C@@H](NC(=O)[C@H](C)NC(=O)[C@@H](NC(=O)c1ccccc1)C(C)(C)C)C(C)C [PVA-117]	< 200 nM
CC(C)[C@H](NC(=O)[C@H](C)NC(=O)[C@@H](NC(=O)c1ccccc1)C(C)(C)C)C(=O)C(N)=O [PVA-118]	< 20 nM
